Here are results for 14 compounds from patent US20260027096A1, “PHD INHIBITORS” (Oxford University Innovation Limited, priority 2023, published 2026).

The structures appear in SMILES notation.

One assay relates to human THP-1 cells. The assay can be described thus: Proliferation and apoptosis of THP-1 cells. It is filed as cell-based. An excerpt: (§1) Viable cells were counted by trypan blue exclusion at the indicated time points. To analyse cells undergoing apoptosis, cells were suspended in binding buffer containing PE-conjugated Annexin-V or FITC-conjugated Annexin-V, and either PI or DAPI.
To determine consequences of Daprodustat (2) and IOX5 (68, example 46) treatment on AML cells driven by the MLL-AF9→MEIS1/HOXA9 axis, mouse iMLL-AF9-and Meis1Hoxa9-transformed AML cells were employed, as well as human THP-1 cells, which harbour the MIL-AF9 translocation. […] Thus, providing compelling evidence that PHD inhibition compromises AML cells driven by the MLL-AF9→MEIS1/HOXA9 axis.

The target in the next assay is PHD2 (Homo sapiens (Human), UniProt Q9GZT9). Nature of the assay: PHD2 RF-MS (RapidFire LC-MS) hydroxylation assay. It is filed as biochemical. How it is done:
In brief, cDNA encoding for the catalytic domain of tPHD2 (181-426 residues) was cloned into the pET28a (+)/pET24a (+) vectors (Novagen), to enable production of tPHD2 (residues 181-426) protein with/without an N-terminal His6-tag. The tPHD2 (residues 181-426) encoding construct was transformed into the Escherichia coli BL21 DE3 cell line; protein production was induced with 0.5 mM […] (3-5 hr at 28° C.). […] The protein was exchanged into 50 mM Tris-HCl buffer (pH 7.5) and concentrated to % 40 mg/ml.
Tris(hydroxymethyl)aminomethane was from Fisher. Ferrous ammonium sulfate (FAS), 2-oxoglutarate (2OG) and L-ascorbic acid were from Sigma Aldrich; solutions of these were prepared freshly each day. All inhibition assays were carried out in 384-well polypropylene plates (Greiner Bio-One). PHD2 assays were performed in assay buffer (50 mM Tris. Cl pH 7.5, 50 mM NaCl). […] The final assay concentration of DMSO was kept constant at 0.5%. PHD2 protein was prepared at a concentration of 300 nM in assay buffer and 25 μl dispensed across each 384-well assay plate. The PHD2 solution was allowed to equilibrate with the inhibitors for 15 minutes at room temperature; the enzyme reaction then initiated by dispense of 25 μl of substrate (20 μM FAS, 200 µM L-ascorbic acid, 10 μM CODD peptide and 20 μM 2OG in the assay buffer. Enzyme reactions were allowed to proceed for 20 minutes at room temperature and the reaction terminated by addition of 10% formic acid (5 μl). Assay plates were then transferred to a RapidFire RF360 sampling robot (Agilent) connected to an Agilent 6530 accurate mass quadrupole-time-of-flight (Q-TOF) mass spectrometer. Assay samples were aspirated under vacuum and loaded onto a C4 solid phase extraction (SPE) cartridge. After loading the C4 SPE was washed with 0.1% formic acid in water to remove non-volatile buffer salts and then peptide was eluted from the SPE with 85% acetonitrile, 15% water containing 0.1% formic acid onto the mass spectrometer. Peptide charge states were monitored in positive mode. Ion chromatogram data were extracted for the +2 charge state and peak area data integrated using RapidFire Integrator software (Agilent). % conversion of the CODD peptide substrate to the +16 hydroxylated peptide was calculated using the equation: % conversion=100×hydroxylated/(hydroxylated+non-hydroxylated peptide). IC50 values were determined from non-linear regression plots using GraphPad prism.
Example 158—Structure activity relationship (SAR) studies for PHD inhibition SAR studies for PHD inhibition were carried out on the compounds of the invention. Compounds were screened against PHD2 using the RF-MS hydroxylation assay.

A further assay concerns HIF1-α in Hep3B cells. Nature of the assay: Immunoblots of Hep3B cells. It is filed as cell-based. Conditions: 100 μM and 20 μM, 3 hours. How it is done: Example 159—Immunoblots of Hep3B cells treated with compounds of the invention Hep3B cells were treated with 117, 119, 122 and 123 of the invention (Examples 93, 95, 98 and 99) at 100 μM (A) and 20 μM (B) PHD inhibitors for 3 hours. The blots show protein levels of HIF1-α and β-actin at the 3rd hour after treatment.

Assay [1] deals with THP-1, MOLM13, OCI-AML3 and MV411 cells. Nature of the assay: Proliferation and apoptosis of human AML cell lines THP-1, MOLM13, OCI-AML3 and MV411. It is filed as cell-based. The conditions noted are these: 50 μM, single agent. How it is done: (A-B) Proliferation and apoptosis of human AML cell lines THP-1, MOLM13, OCI-AML3 and MV411 treated with vehicle control and 50 μM Molidustat (5). Data represent mean±SEM; **** p<0.0001.
(A-B) Proliferation and apoptosis of human AML cell lines MOLM-13, OCI-AML3, MV411 and THP-1 treated with vehicle control, 50 μM Daprodustat (2), 50 μM IOX5 (68, example 46), 0.1 μM Venetoclax (MOLM-13 and MV411), 0.01 μM Venetoclax (OCI-AML3 and THP-1) and combination therapy. (C-D) Early-([…]) and late stage (PI^+ Annexin^+) apoptosis of human AML patient samples treated with vehicle control, 50 μM Daprodustat (2), 50 μM IOX5 (68, example 46), 0.01 μM Venetoclax and combination therapy. Data represent mean±SEM; * p<0.05; ** p<0.01, *** p<0.001, **** p<0.0001.
as §1

Assay [2] concerns MV411 AML cells in NBSGW recipient mice. Nature of the assay: MV411 xenotransplantation in NBSGW mice, combination with Venetoclax. It is filed as in vivo, mouse. Conditions: 14 days treatment; IOX5 i.p. twice daily, Venetoclax o.g. once daily. On the procedure: 14 days following transplantation, recipient mice were treated with IOX5 (68, example 46), Venetoclax or vehicle control. Dosing regimen consisted of 2× daily via i.p. injection (IOX5 (68, example 46) or vehicle) and/or 1× daily via o.g. (Venetoclax or vehicle). […] (E-G) Percentage of human CD45+CD33+CD14+ cells in the BM, spleen and liver, respectively (n=5). (H) Survival curve of mice treated with IOX5 (68, example 46), Venetoclax, IOX5 (68, example 46)+Venetoclax or vehicle control (n=6-7). (I-J) Proliferation and Annexin-V+DAPI+analyses, respectively, of THP-1 cells treated with Ven, IOX5, FIH inhibitor (FIHi; DM-NOFD), IOX5 (68, example 46)+FIHi, IOX5 (68, example 46)+Ven, FIHi+Ven, IOX5 (68, example 46)+FIHi+Ven or vehicle control (n=6). Statistical significance represented as in (A-B). Data represent mean±SEM; *p<0.05; ** p<0.01; *** p<0.001; **** p<0.0001.
100,000 THP-1 cells, 100,000 OCI-AM3 cells or 100,000 MV411 cells (for combination experiments) were tail vein injected into non-irradiated 10-to 12-week-old mixed gender NBSGW mice and began drug treatment 14 days after transplantation. […] Mice were culled 5 weeks after transplantation.
Mice in combination treatment experiments with Venetoclax (ABT-199) (MCE) were dosed once daily with 100 mg/kg via oral gavage (o.g.).
Further to findings in Example 170, the efficacy of IOX5 (68, example 46)+Venetoclax combination in vivo was investigated (FIG. 38D). MV411 AML cells were engrafted (with MLL-AF4 and FLT3-ITD mutation) and the recipient mice were treated with a vehicle, IOX5 (68, example 46), Venetoclax, and a combination of IOX5 (68, example 46)+Venetoclax.

The test system of assay [3] is other 2OG oxygenases (off-target sites commonly inhibited by existing PHD inhibitors). The assay can be described thus: Selectivity versus other 2OG oxygenases / off-target sites (FIG. 14). It is filed as biochemical.
The next assay deals with HIF1-α in HEK293 T cells. Nature of the assay: Immunoblots of HEK293 T cells. It is filed as cell-based. The conditions noted are these: HEK293 T cells, 0.5, 1, 5, 10, 20, 50 and 100 μM, 18 hours. How it is done:
Cells were grown to 90% confluency.
Protocols for cell culture and immunoblotting were performed using the established methods.
In general terms: In western blotting, separated proteins are transferred to a membrane and probed.

Assay [4] concerns the target KDM4A: lysine specific demethylase 4A (Homo sapiens (Human), UniProt O75164). Nature of the assay: KDM4A LCMS demethylation assay.
Method: (§2) 4 ml of enzyme reaction were injected and loaded onto a ZORBAX RRHD Eclipse Plus C18 column (Agilent Technologies, CA, US). Solvent A consisted of LCMS grade water containing 0.1% (v/v) formic acid and solvent B consisted of acetonitrile containing 0.1% (v/v) formic acid. […] The mass spectrometer was operated in the positive ion mode with a drying gas temperature of 280° C., drying gas flow rate of 13 L/min, nebulizer pressure of 40 psig, sheath gas temperature of 350° C., sheath gas flow rate of 12 L/min, capillary voltage of 4000 V, nozzle voltage of 1000 V. All acquired data were analyzed using Agilent MassHunter Qualitative Analysis (Version B.07.00) software.
For assay [5], the target named is KDM5B: lysine specific demethylase 5B (Homo sapiens (Human), UniProt Q9UGL1). The assay can be described thus: KDM5B LCMS demethylation assay.
Method: KDM5B enzyme reactions were performed under optimized buffer conditions (50 mM MES pH 7.0, 50 mM NaCl, 1 mM TCEP). […] The enzyme reaction was progressed for 30 minutes, and the reaction stopped by addition of formic acid to a final concentration of 1% (v/v). Control reactions included a 0.5% DMSO control and a reaction with a known inhibitor of KDM5B (10 mM KDOAM25, ^i).
as §2
Assay [6] concerns the target KDM6B: lysine specific demethylase 6B (Homo sapiens (Human), UniProt O15054). The assay can be described thus: KDM6B LCMS demethylation assay.
Method: The peptide substrate for KDM5B was a 21-mer histone-H3 peptide (ARTK(me3)[sequence]), as synthesized by Peptide Protein Research (Hampshire, UK). The KDM6B peptide substrate was a 17-mer histone-H3 peptide ([sequence](me3)[sequence]), as synthesized by GL Biochem (Shanghai) Ltd (Shanghai, China).
KDM6B reactions were performed under optimized buffer conditions (50 mM MES pH 7.0). […] The enzyme reaction was progressed for 30 minutes and the reaction stopped by addition of formic acid to a final concentration of 1% (v/v). Control reactions included a 0.5% DMSO control and a reaction with a known inhibitor of KDM6B (10 mM GSKJ1,^j).
as §2

PHD2, sequence (Q9GZT9 181-426): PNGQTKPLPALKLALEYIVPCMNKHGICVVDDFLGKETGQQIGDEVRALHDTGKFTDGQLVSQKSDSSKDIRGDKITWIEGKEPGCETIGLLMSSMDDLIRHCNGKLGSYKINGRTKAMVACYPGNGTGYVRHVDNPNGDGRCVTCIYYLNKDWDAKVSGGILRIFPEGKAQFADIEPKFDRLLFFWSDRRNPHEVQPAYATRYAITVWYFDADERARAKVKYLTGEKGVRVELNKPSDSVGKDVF
KDM4A: lysine specific demethylase 4A, sequence (O75164 1-359): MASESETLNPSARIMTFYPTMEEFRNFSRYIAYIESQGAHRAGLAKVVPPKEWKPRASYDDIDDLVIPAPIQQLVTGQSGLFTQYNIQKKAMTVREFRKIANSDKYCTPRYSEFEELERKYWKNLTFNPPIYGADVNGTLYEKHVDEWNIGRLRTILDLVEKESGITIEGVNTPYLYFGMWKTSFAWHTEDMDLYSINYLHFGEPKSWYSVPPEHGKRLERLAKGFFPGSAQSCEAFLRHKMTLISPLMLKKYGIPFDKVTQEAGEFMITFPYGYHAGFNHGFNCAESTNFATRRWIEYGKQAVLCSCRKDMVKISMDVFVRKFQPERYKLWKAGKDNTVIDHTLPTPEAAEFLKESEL
KDM6B: lysine specific demethylase 6B, sequence (O15054 1141-1590): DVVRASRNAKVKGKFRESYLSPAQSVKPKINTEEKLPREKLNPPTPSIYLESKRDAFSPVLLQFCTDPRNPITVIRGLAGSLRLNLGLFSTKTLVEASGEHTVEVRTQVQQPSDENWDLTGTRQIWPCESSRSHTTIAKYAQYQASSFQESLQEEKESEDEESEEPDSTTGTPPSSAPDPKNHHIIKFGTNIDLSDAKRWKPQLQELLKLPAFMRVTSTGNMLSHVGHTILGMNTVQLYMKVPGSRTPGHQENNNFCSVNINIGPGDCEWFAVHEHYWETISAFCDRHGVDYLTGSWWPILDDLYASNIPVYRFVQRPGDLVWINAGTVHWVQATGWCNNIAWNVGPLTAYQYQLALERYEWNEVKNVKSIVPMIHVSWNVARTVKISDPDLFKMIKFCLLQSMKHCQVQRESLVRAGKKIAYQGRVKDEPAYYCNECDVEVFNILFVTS
KDM5B: lysine specific demethylase 5B, sequence (Q9UGL1 1-822): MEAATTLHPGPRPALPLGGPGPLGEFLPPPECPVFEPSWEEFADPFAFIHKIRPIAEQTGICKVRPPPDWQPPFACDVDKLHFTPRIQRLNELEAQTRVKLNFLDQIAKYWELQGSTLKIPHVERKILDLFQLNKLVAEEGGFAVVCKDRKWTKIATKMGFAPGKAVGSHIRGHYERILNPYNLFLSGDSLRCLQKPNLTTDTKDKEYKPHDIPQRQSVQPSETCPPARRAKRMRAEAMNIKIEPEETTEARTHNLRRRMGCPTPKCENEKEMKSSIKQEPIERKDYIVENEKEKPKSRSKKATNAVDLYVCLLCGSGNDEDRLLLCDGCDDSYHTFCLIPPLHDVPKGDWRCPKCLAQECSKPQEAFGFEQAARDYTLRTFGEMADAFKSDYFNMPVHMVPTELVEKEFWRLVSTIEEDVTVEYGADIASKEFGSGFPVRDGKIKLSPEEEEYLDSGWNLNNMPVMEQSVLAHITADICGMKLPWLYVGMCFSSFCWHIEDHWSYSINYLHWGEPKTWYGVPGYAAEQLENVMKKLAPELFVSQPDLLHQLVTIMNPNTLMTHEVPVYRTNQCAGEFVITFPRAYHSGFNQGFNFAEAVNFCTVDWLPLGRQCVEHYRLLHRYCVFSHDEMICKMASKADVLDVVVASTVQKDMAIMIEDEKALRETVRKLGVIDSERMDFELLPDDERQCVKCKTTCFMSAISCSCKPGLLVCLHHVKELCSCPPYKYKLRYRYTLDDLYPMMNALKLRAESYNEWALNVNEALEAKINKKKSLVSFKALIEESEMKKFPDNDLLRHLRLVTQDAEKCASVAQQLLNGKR

For `COC(=O)C(=O)N[C@H](Cc1ccccc1)C(=O)OC` [DM-NOFD, dimethyl N-oxalyl-D-phenylalanine], in the assay on human THP-1 cells (THP-1 cells, FIH inhibitor DM-NOFD alone or combined), the “proliferation and survival (Annexin-V+DAPI+) of AML cells” value is “no impact on proliferation and survival of AML cells”.

A word on the IC50: it is the concentration needed to halve the response being measured. Regarding `Cc1cc2nc(C)c3c(O)c(C(=O)NCc4ccc(C(F)(F)F)cc4)cnc3n2n1` [Compound 123, 6-Hydroxy-2,5-Dimethyl-N-(4-(trifluoromethyl)benzyl) pyrazolo[1,5-a]pyrido[3,2-e]pyrimidine-7-carboxamide], the IC50 against PHD2 lay within 1 to 1000 nM. In the assay on HIF1-α in Hep3B cells, the “protein level of HIF1-α (immunoblot)” value is listed as “increase HIF-1α”.

Turning to `O=c1c(-n2ccnn2)c[nH]n1-c1cc(N2CCOCC2)ncn1` [molidustat], in assay [1], the “cell death (apoptosis)” value is “induced cell death” and the proliferation entry is listed as “reduced proliferation”.

`Cc1nc(C(=O)NCC(=O)O)c(O)c2ccc(Oc3ccccc3)cc12` [roxadustat]: in the assay on human THP-1 cells (THP-1, 50 μM), the proliferation result is listed as “strong anti-leukaemic activity”.

As to `CC1(C)CCC(CN2CCN(c3ccc(C(=O)NS(=O)(=O)c4ccc(NCC5CCOCC5)c([N+](=O)[O-])c4)c(Oc4cnc5[nH]ccc5c4)c3)CC2)=C(c2ccc(Cl)cc2)C1` [Venetoclax, venetoclax, reference compound], in [2], the leukaemic burden entry is on record as “decreased leukaemic burden” and the “survival of recipient mice” value is recorded as “extended survival of the recipient mice”.

At PHD2, `O=C(NCc1ccc(-c2ccccc2)cc1)c1cnc2c(cnc3ccnn32)c1O` [Compound 117, N-([1,1′-Biphenyl]-4-ylmethyl)-6-hydroxypyrazolo[1,5-a]pyrido[3,2-e]pyrimidine-7-carboxamide] gave an IC50 of 1 to 1000 nM. Moreover, in the assay with HIF1-α in Hep3B cells, the “protein level of HIF1-α (immunoblot)” value was “increase HIF-1α”.

`O=C(Nc1ccc(-c2ccccc2)cc1)c1cnc2c(cnc3ccnn32)c1O` [Compound 119, N-([1,1′-Biphenyl]-4-yl)-6-hydroxypyrazolo[1,5-a]pyrido[3,2-e]pyrimidine-7-carboxamide] registered an IC50 against PHD2 of 1 to 1000 nM. Also, the “protein level of HIF1-α (immunoblot)” value in the assay with HIF1-α in Hep3B cells is listed as “increase HIF-1α”.

In turn, `O=C(O)c1ccc(-n2cc(C(=O)NCc3ccc(-c4ccccc4)cc3)cn2)nc1` [Compound 101, 6-(4-(([1,1′-Biphenyl]-4-ylmethyl)carbamoyl)-1H-pyrazol-1-yl) nicotinic acid] yielded an IC50 at PHD2 of 1000 to 10000 nM.

Regarding `O=C(NCc1ccc(-c2ccccc2)nc1)c1cnc(-n2cccn2)cc1O` [Compound 69, 4-Hydroxy-N-((6-phenylpyridin-3-yl)methyl)-6-(1H-pyrazol-1-yl) nicotinamide], the IC50 on PHD2 fell in the range of 1 to 1000 nM.

As to `N#Cc1cnc(-n2cc(C(=O)NCc3ccc(-c4ccccc4)cc3)cn2)nc1O` [Compound 158, N-([1,1′-biphenyl]-4-ylmethyl)-1-(5-cyano-4-hydroxypyrimidin-2-yl)-1H-pyrazole-4-carboxamide], the 50% inhibitory concentration (IC50) against PHD2 lay in the range of 1 to 1000 nM.

As for `Cc1cc2nc(C)c3c(O)c(C(=O)NCc4ccc(-c5ccccc5)cc4)cnc3n2n1` [Compound 122, N-([1,1′-Biphenyl]-4-ylmethyl)-6-hydroxy-2,5-dimethylpyrazolo[1,5-a]pyrido[3,2-e]pyrimidine-7-carboxamide], the IC50 at PHD2 lay within 1 to 1000 nM. Further, the “protein level of HIF1-α (immunoblot)” value with HIF1-α in Hep3B cells is given as “increase HIF-1α”.

As for `O=C(O)c1cnn(-c2ncc(C(=O)NCC3CCC(C(F)(F)F)CC3)cc2O)c1` (stereo not drawn) [Compound 129, 1-(3-hydroxy-5-(((4-(trifluoromethyl)cyclohexyl)methyl)carbamoyl)pyridin-2-yl)-1H-pyrazole-4-carboxylic acid], the half-maximal inhibitory concentration (IC50) against PHD2 is 1 to 1000 nM.

In the case of `O=C(NCC1CCC(C(F)(F)F)CC1)c1cnc(-n2cccn2)cc1O` (stereo not drawn) [Compound 68, 4-Hydroxy-6-(1H-pyrazol-1-yl)-N-((4-(trifluoromethyl)cyclohexyl)methyl) nicotinamide], the “IC50 for off-target sites” value in assay [3] was “very high IC50”. Moreover, the “protein level of HIF1-α (immunoblot)” value in the assay with HIF1-α in HEK293 T cells is “increase cellular HIF-1α”. The IC50 in assay [4], in [5] and in [6] was over 100000 nM each time.

The compound `O=C(NCc1ccc(OC(F)(F)F)cc1)c1cnc(-n2cccn2)cc1O` [Compound 67, 4-Hydroxy-6-(1H-pyrazol-1-yl)-N-(4-(trifluoromethyloxy)benzyl) nicotinamide] gave an IC50 on PHD2 of 1 to 1000 nM.
